Columns and labels:
[1] = Weight gain suppressing effect in mice fed a high fat diet (body weight, weight gain, fat weight around the testes); format: in vivo; conditions: male C57BL/6J mice, compared with control group
Description: Male, 8-week-old C57BL/6J mice were divided into 5 groups and fed with a normal diet (AIN-93M) (manufactured by Oriental Yeast Co., Ltd.) or a high fat diet (HFD-60) (manufactured by Oriental Yeast Co., Ltd.). The groups fed with a high fat diet were administered with fructo-oligosaccharide (hereinafter, also referred to as “FOS”), a propionic acid bacterium (Propionibacterium freudenreichii ET-3, Accession No. FERM BP-8115, hereinafter also referred to as “P bacterium”), or both FOS and a propionic acid bacterium (hereinafter, also referred to as “FOS+P bacterium”), and bred for 8 weeks. The group fed with the high fat diet, but not administered with FOS and a propionic acid bacterium was defined as a control group. Meioligo™ P (manufactured by Meiji Food Materia Co., Ltd.) was used as FOS, which was incorporated in the high fat diet in an amount of 5% by mass, and administered. A bacterial solution (living cells) activated and cultured in GAM bouillon (manufactured by Nissui Pharmaceutical Co., Ltd.) was washed with physiological saline, and then the number of propionic acid bacteria was adjusted to 5×10^9 cfu/mL to prepare a propionic acid bacterium. This bacterial solution was forcibly administered orally at a dose of 0.2 mL once daily every day from the start date to the end date of the test. To the groups not administered with the propionic acid bacterium (normal diet group, control group and FOS-administered group), physiological saline was forcibly administered orally at a dose of 0.2 mL once daily every day from the start date to the end date of the test. The body weight during the test period, the fat weight around the testes at the time of dissection, and the propionic acid concentration in feces collected at the end day of the test were measured, and the amount of weight gain was calculated from the body weights at the start and end of the test, and used for evaluation.

[2] = test system: propionic acid production in the intestine; experiment: Propionic acid concentration in feces of high fat diet-fed mice, measured by HPLC; format: in vivo; conditions: male C57BL/6J mice, feces collected at the end day of the test, compared with control group, P <0.05 paired t-test for the combination
Description: Male, 8-week-old C57BL/6J mice were divided into 5 groups and fed with a normal diet (AIN-93M) (manufactured by Oriental Yeast Co., Ltd.) or a high fat diet (HFD-60) (manufactured by Oriental Yeast Co., Ltd.). The groups fed with a high fat diet were administered with fructo-oligosaccharide (hereinafter, also referred to as “FOS”), a propionic acid bacterium (Propionibacterium freudenreichii ET-3, Accession No. FERM BP-8115, hereinafter also referred to as “P bacterium”), or both FOS and a propionic acid bacterium (hereinafter, also referred to as “FOS+P bacterium”), and bred for 8 weeks. The group fed with the high fat diet, but not administered with FOS and a propionic acid bacterium was defined as a control group. Meioligo™ P (manufactured by Meiji Food Materia Co., Ltd.) was used as FOS, which was incorporated in the high fat diet in an amount of 5% by mass, and administered. […] The body weight during the test period, the fat weight around the testes at the time of dissection, and the propionic acid concentration in feces collected at the end day of the test were measured, and the amount of weight gain was calculated from the body weights at the start and end of the test, and used for evaluation.
The propionic acid concentration in the feces was measured by HPLC after extracting the propionic acid from the feces. […]

With “Propionibacterium freudenreichii ET-3 [propionic acid bacterium]” the body weight ([1]; high fat diet (HFD-60), from the 6th week on of 8 weeks breeding) was “lower in the propionic acid bacterium-administered group than those in the control group”, the “fat weight around the testes” value ([1]; high fat diet, at dissection at end of 8-week test) was “low” and the “amount of weight gain” value ([1]; high fat diet, end day of the test (8 weeks) relative to initial body weight) was “low”. The “propionic acid concentration in the feces” value [2] was “clearly higher than that in the control group”.

From patent publication US20250319140A1, “COMPOSITION” (MEIJI CO., LTD., priority 2019, published 2025)
